Laboratory results taken from ChEMBL document CHEMBL5356993, “Novel pyrazolo[3,4-d]pyrimidine derivatives: design, synthesis, anticancer evaluation, VEGFR-2 inhibition, and antiangiogenic activity” (RSC Med Chem, 2023).

Columns and labels:
HUVEC [1] = assay: Antiangiogenic activity against HUVEC cells assessed as wound closure at IC50 incubated for 72 hrs by wound healing assay (reference value: 98.518 %); assay type: functional, Homo sapiens
HUVEC [2] = assay: Antiangiogenic activity against HUVEC cells assessed as decrease in healing rate at IC50 incubated for 72 hrs by wound healing assay relative to control; assay type: functional, Homo sapiens; parameters: scale not given: the % may be the effect or the level left
MDA-MB-468 [3] = assay: Induction of cell cycle arrest in human MDA-MB-468 cells assessed as accumulation of cells at G0 to G1 phase at IC50 incubated for 24 hrs by RNase/PI staining based flow cytometry (reference value: 59.02 %); assay type: functional
MDA-MB-468 [4] = assay: Induction of cell cycle arrest in human MDA-MB-468 cells assessed as accumulation of cells at S phase at IC50 incubated for 24 hrs by RNase/PI staining based flow cytometry (reference value: 24.85 %); assay type: functional
MDA-MB-468 [5] = assay: Induction of cell cycle arrest in human MDA-MB-468 cells assessed as fold increase in cell population at S phase at IC50 incubated for 24 hrs by RNase/PI staining based flow cytometry relative to control; assay type: functional
MDA-MB-468 [6] = assay: Induction of cell cycle arrest in human MDA-MB-468 cells assessed as decrease in cell population at G0 to G1 phase at IC50 incubated for 24 hrs by RNase/PI staining based flow cytometry relative to control; assay type: functional; parameters: scale not given: the % may be the effect or the level left
MDA-MB-468 [7] = assay: Induction of cell cycle arrest in human MDA-MB-468 cells assessed as decrease in cell population at G2/M phase at IC50 incubated for 24 hrs by RNase/PI staining based flow cytometry relative to control; assay type: functional; parameters: scale not given: the % may be the effect or the level left
MDA-MB-468 [8] = assay: Induction of apoptosis in human MDA-MB-468 cells assessed as early apoptotic cells at IC50 incubated for 24 hrs by Annexin V/PI staining based flow cytometry (reference value: 0.52 %); assay type: functional
MDA-MB-468 [9] = assay: Induction of apoptosis in human MDA-MB-468 cells assessed as late apoptotic cells at IC50 incubated for 24 hrs by Annexin V/PI staining based flow cytometry (reference value: 0.17 %); assay type: functional
MDA-MB-468 [10] = assay: Induction of apoptosis in human MDA-MB-468 cells assessed as fold increase in total apoptotic cells at IC50 incubated for 24 hrs by Annexin V/PI staining based flow cytometry relative to control; assay type: functional
MDA-MB-468 [11] = assay: Induction of apoptosis in human MDA-MB-468 cells assessed as fold increase in caspase-3 level incubated for 2 hrs by ELISA relative to control; assay type: functional
MDA-MB-468 [12] = assay: Induction of apoptosis in human MDA-MB-468 cells assessed as increase in caspase-3 level incubated for 2 hrs by ELISA (reference value: 2.109 ng/ml); assay type: functional

Cc1nc2c(cnn2-c2ccccc2)c(=O)n1-c1ccc(NC(=O)c2ccc(F)cc2)cc1
Activity (HUVEC [1]): 75.555% | Activity (HUVEC [2]): 23% | Activity (MDA-MB-468 [3]): 52.86% | Activity (MDA-MB-468 [4]): 38.02% | fold change (FC) (MDA-MB-468 [5]): 1.53 | Activity (MDA-MB-468 [6]): 10.43% | Activity (MDA-MB-468 [7]): 43.46% | Activity (MDA-MB-468 [8]): 15.85% | Activity (MDA-MB-468 [9]): 22.49% | fold change (FC) (MDA-MB-468 [10]): 18.98 | fold change (FC) (MDA-MB-468 [11]): 7.32 | Activity (MDA-MB-468 [12]): 15.44 ng/mL
